pKd: −log10 of the molar value.
Target: T1, FLT3 ITD, F691L (Homo sapiens, UniProt P36888, F691L, form not given)
T1 construct: fused on or other part: DNA tag for qPCR detection (T7 phage fusion or DNA-tagged protein from HEK-293 cells)
T1 sequence (P36888 1-993 F691L): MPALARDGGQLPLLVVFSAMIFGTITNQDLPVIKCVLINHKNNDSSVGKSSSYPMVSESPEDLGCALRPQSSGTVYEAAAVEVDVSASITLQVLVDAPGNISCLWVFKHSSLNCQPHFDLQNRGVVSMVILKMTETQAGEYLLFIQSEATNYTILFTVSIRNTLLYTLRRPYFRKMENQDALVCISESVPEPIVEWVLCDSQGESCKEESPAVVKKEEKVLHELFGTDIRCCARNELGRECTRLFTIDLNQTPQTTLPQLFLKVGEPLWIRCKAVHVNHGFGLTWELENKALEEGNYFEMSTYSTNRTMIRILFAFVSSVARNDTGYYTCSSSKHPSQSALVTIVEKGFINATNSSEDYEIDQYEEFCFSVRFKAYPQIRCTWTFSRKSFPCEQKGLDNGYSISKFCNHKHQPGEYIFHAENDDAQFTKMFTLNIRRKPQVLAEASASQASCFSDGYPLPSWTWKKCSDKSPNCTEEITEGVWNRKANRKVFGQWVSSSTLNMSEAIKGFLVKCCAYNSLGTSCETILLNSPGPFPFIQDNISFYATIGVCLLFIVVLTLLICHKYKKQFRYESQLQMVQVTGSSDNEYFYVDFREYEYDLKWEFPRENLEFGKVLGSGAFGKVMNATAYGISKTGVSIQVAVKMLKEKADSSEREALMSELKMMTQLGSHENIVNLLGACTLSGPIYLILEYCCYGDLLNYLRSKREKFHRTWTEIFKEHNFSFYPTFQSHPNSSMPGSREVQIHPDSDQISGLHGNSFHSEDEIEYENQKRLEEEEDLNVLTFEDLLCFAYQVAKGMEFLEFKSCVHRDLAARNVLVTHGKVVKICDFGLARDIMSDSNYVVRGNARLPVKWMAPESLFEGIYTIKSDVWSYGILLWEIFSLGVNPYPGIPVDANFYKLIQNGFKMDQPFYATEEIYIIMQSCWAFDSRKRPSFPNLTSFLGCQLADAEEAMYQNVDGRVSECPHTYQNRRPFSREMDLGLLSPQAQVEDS
Assay: DiscoverX KINOMEscan competition binding, FLT3 ITD, F691L
From the text: Kinase binding data were obtained for various exemplary compounds prepared according to Examples 1-24 using the DiscoverX KINOMVIEscan® active site-directed competition binding site-directed assay protocol described below. […] As a result, the data report thermodynamic interaction affinities (Kd values), rather than IC50 values that are dependent on ATP concentrations. The assay uses a DNA-tagged version of the protein kinase, and an immobilized ligand bound to a solid support. Compounds that directly or indirectly prevent kinase binding to the immobilized ligand reduce the amount of kinase captured on the solid support, which is detected using an ultra-sensitive qPCR method. Affinity constants reported from the assay have been reported to be independent of the immobilized ligand used that is coupled to the solid support (See supplemental information in Fabian, M. A. et. al., (2005) Nat. Biotechnol. 23, 329-336; Wodicka, L. M. et. al., (2010) Chem. Biol. 17, 1241-1249.)
Kinase-tagged T7 phage strains were prepared in an E. coli host derived from the BL21 strain. E. coli were grown to log-phase and infected with T7 phage and incubated with shaking at 32° C. until lysis. The lysates were centrifuged and filtered to remove cell debris. The remaining kinases were produced in HEK-293 cells and subsequently tagged with DNA for qPCR detection. Streptavidin-coated magnetic beads were treated with biotinylated small molecule ligands for 30 minutes at room temperature to generate affinity resins for kinase assays. The liganded beads were blocked with excess biotin and washed with blocking buffer (SeaBlock (Pierce), 1% BSA, 0.05% Tween 20, 1 mM DTT) to remove unbound ligand and to reduce non-specific binding. Binding reactions were assembled by combining kinases, liganded affinity beads, and test compounds in 1× binding buffer (20% SeaBlock, 0.17×PBS, 0.05% Tween 20, 6 mM DTT). Test compounds were prepared as 111× stocks in 100% DMSO. Kds were determined using an 11-point 3-fold compound dilution series with three DMSO control points. All compounds for Kd measurements are distributed by acoustic transfer (non-contact dispensing) in 100% DMSO. The compounds were then diluted directly into the assays such that the final concentration of DMSO was 0.9%. All reactions were performed in polypropylene 384-well plates. Each was a final volume of 0.02 mL. The assay plates were incubated at room temperature with shaking for 1 hour and the affinity beads were washed with wash buffer (1×PBS, 0.05% Tween 20). The beads were then re-suspended in elution buffer (1×PBS, 0.05% Tween 20, 0.5 μM nonbiotinylated affinity ligand) and incubated at room temperature with shaking for 30 minutes. The kinase concentration in the eluates was measured by qPCR.
Binding constants (Kds) were calculated with a standard dose-response curve using the Hill equation. The Hill Slope was set to −1. Curves were fitted using a non-linear least square fit with the Levenberg-Marquardt algorithm.

Row | pKd | Structure (SMILES)
1 | 9.96 | CC1(c2cn3c(-c4cccc(N[C@H]5CNC[C@@H]5F)n4)cnc3cn2)CC1 [Compound 1, N-((3S,4S)-4-fluoropyrrolidin-3-yl)-6-(6-(1-methylcyclopropyl)imidazo[1,2-a]pyrazin-3-yl)pyridin-2-amine]
2 | 10.15 | CC1(c2cn3c(-c4cccc(N[C@@H]5CCNC5)n4)cnc3cn2)CC1 [Compound 3, (R)-6-(6-(1-methylcyclopropyl)imidazo[1,2-a]pyrazin-3-yl)-N-(pyrrolidin-3-yl)pyridin-2-amine]
3 | 10.64 | CC1(c2cn3c(-c4cccc(N[C@H]5CNCC56CC6)n4)cnc3cn2)CC1 [Compound 5, (R)-N-(6-(6-(1-methylcyclopropyl)imidazo[1,2-a]pyrazin-3-yl)pyridin-2-yl)-5-azaspiro[2.4]heptan-7-amine]
4 | 9.52 | FC(F)(F)C1(c2cn3c(-c4cccc(N[C@@H]5CCNC5)n4)cnc3cn2)CC1 [Compound 10, (R)-N-(pyrrolidin-3-yl)-6-(6-(1-(trifluoromethyl)cyclopropyl)imidazo[1,2-a]pyrazin-3-yl)pyridin-2-amine]
5 | 9.49 | FC(F)c1cn2c(-c3cccc(N[C@H]4CNC[C@@H]4F)n3)cnc2cn1 [Compound 16, 6-(6-(difluoromethyl)imidazo[1,2-a]pyrazin-3-yl)-N-((3S,4S)-4-fluoropyrrolidin-3-yl)pyridin-2-amine]
6 | 10.13 | FC(F)c1cn2c(-c3cccc(N[C@H]4CNCC[C@@H]4F)n3)cnc2cn1 [Compound 25, 6-(6-(difluoromethyl)imidazo[1,2-a]pyrazin-3-yl)-N-((3S,4S)-4-fluoropiperidin-3-yl)pyridin-2-amine]
7 | 8.74 | CC(C)(O)c1cn2c(-c3cccc(N[C@@H]4CCCNC4)n3)cnc2cn1 [Compound 30, (R)-2-(3-(6-(piperidin-3-ylamino)pyridin-2-yl)imidazo[1,2-a]pyrazin-6-yl)propan-2-ol]
8 | 9.31 | CC(C)(O)c1cn2c(-c3cccc(N[C@H]4CNCC[C@@H]4F)n3)cnc2cn1 [Compound 31, 2-(3-(6-(((3S,4S)-4-fluoropiperidin-3-yl)amino)pyridin-2-yl)imidazo[1,2-a]pyrazin-6-yl)propan-2-ol]
9 | 9.12 | FC(F)(F)COc1cn2c(-c3cccc(N[C@@H]4CCNC4)n3)cnc2cn1 [Compound 38, (R)-N-(pyrrolidin-3-yl)-6-(6-(2,2,2-trifluoroethoxy)imidazo[1,2-a]pyrazin-3-yl)pyridin-2-amine]
10 | 10.00 | F[C@H]1CNC[C@@H]1Nc1cccc(-c2cnc3cnc(C4CC4)cn23)n1 [Compound 50, 6-(6-cyclopropylimidazo[1,2-a]pyrazin-3-yl)-N-((3S,4S)-4-fluoropyrrolidin-3-yl)pyridin-2-amine]
11 | 10.21 | Cn1cc(-c2cn3c(-c4cccc(N[C@H]5CNC[C@@H]5F)n4)cnc3cn2)cn1 [Compound 52, N-((3S,4S)-4-fluoropyrrolidin-3-yl)-6-(6-(1-methyl-1H-pyrazol-4-yl)imidazo[1,2-a]pyrazin-3-yl)pyridin-2-amine]
